Tested on: Nitzschia inconspicua
Test: Cultivation of Nitzschia inconspicua in an open raceway pond at high silica loading, lipid content of harvested slurry
Format: cell-based
Method: Nitzschia inconspicua was cultivated at pH 9.6 with a silica loading of 10-11 mM in an open raceway pond for 20 days. Silica was added to the culture at a concentration of 1-3 mM each day to maintain the 10-11 mM silica loading as the algae grew and the batch volume increased. The silica loading was reduced to below 5 mM by diluting the culture without adding silica. The third day after reducing the silica loading, the loading was 2 mM. The algae slurry was harvested on the third day and analyzed for lipid content. The lipid content was 47% of the ash-free dry weight of the biomass. This is a substantial increase in lipid content compared to the typical 5-10% lipid content when the algae is grown in standard media with silica concentrations below 500 μM.

Compound: O=[Si]=O [silica]
- typical lipid content (algae grown in standard media with silica concentrations below 500 μM): 5-10%
- lipid content (pH 9.6, silica loading 10-11 mM for 20 days, then reduced to below 5 mM, loading 2 mM at harvest on the third day): 47 % of the ash-free dry weight of the biomass

Source: patent US20240409880A1, “METHODS FOR INCREASING ALGAE PRODUCTIVITY USING HIGH SILICA CONCENTRATIONS” (Global Algae Technology, LLC, priority 2023, published 2024)
